From patent publication US9655882B2, “Compositions and methods for treatment of neurodegenerative disease” (THE JOHNS HOPKINS UNIVERSITY, priority 2008, dated 2017)
Like-named read-outs stand apart in the source and are kept apart here.

Tests used:
[1] = tested on: Mouse retinal ganglion cells (RGCs); assay: Live-dead assay of cultured mouse RGCs (Cellomics VTI HCS reader), live cell count; details: approximately 2 days culture, various concentrations, FIG. 4
mouse RGCs [2] = assay: RGC survival in purified primary mouse RGC culture (high-content screening, Calcein AM/Hoechst/Ethidium Homodimer-1); format: cell-based
Protocol: Purified mouse RGCs were grown in Neurobasal, 2% B27, 1% N2 supplement, 0.5 mM glutamine. […] Increasing concentrations of kinase inhibitors were present in the media as indicated. Viability and neurite growth of RGCs were assayed by a combined staining with Calcein AM, Hoechst, and Ethidium Homodimer-1. The images were taken and processed by Cellomics Kineticscan.
RGC survival and neurite growth were quantitatively measured as average surviving RGCs/field (4 mm^2) (FIG. 2C), total neurite length per RGC (FIG. 2D), average neurite length per RGC (FIG. 2E), and total neurite count per RGC (FIG. 2F).

mouse RGCs [3] = assay: RGC neurite growth in purified primary mouse RGC culture (high-content screening); format: cell-based; details: Example 4, at 100 nM
Protocol: Purified mouse RGCs were grown in Neurobasal, 2% B27, 1% N2 supplement, 0.5 mM glutamine. 2 μM forskolin was present in all the conditions except vehicle control with DMSO (dark bar), for 60 hours. Increasing concentrations of kinase inhibitors were present in the media as indicated. Viability and neurite growth of RGCs were assayed by a combined staining with Calcein AM, Hoechst, and Ethidium Homodimer-1. The images were taken and processed by Cellomics Kineticscan. […] Error bars: S.E.M.
RGC survival and neurite growth were quantitatively measured as average surviving RGCs/field (4 mm^2) (FIG. 2C), total neurite length per RGC (FIG. 2D), average neurite length per RGC (FIG. 2E), and total neurite count per RGC (FIG. 2F). Error bars: S.E.M.
To enhance the assay sensitivity, the culture condition is defined to support a baseline level of RGC viability (20˜60% surviving RGCs after three days in culture) and neurite growth by 2.5 μM forskolin.

mouse RGCs [4] = format: in vivo; details: for RGC loss / RGC survival after optic nerve injury: intravitreal injection of 1 μl (2 mM) every three days for nine days
From the text: . Mouse optic nerve crush is a well-established animal model in mimicking the pathological conditions in which the primary injury sites are focal to RGC axons such as in glaucoma, AION, traumatic optic neuropathy, and multiple sclerosis. Specific RGC loss following nerve crush, which largely spares displaced amacrine cells in GCL, is thought to result from incomplete understood mechanism that implicates the blockage of retrograde axonal transport and subsequently impaired neurotrophin signaling, and excitotoxicity etc. In addition, mouse optic nerve crush has been successfully employed as an experimental system to identify the genetic nature controlling RGC susceptibility to axon injury.
During the procedure, the optic nerve was carefully exposed through a post-orbital approach, and crushed with a self-closing forceps for three seconds. […] Since RGCs populate ˜60% cells in rodent GCL, the estimated surviving RGC is ˜57.3%. […]. […]

RGC = RGC survival under Flt3 ligand with or without sunitinib; format: cell-based
activated Caspase-3 = assay: Activated Caspase-3 positive (apoptotic) cells in GCL after mouse optic nerve crush; format: in vivo; details: three days following nerve crush, systemic treatment
From the text: Apoptosis has been identified as the major form of RGC death in many, if not all, degenerative conditions targeting their axons, and in mouse optic nerve.

mouse RGCs [5] = assay: Excitotoxicity (glutamate, KA, NMDA, AMPA) in purified mouse RGCs in vitro; format: cell-based; details: 1 μM sunitinib
Protocol: Neuronal toxicity of excitatory amino acid glutamate and its analogue NMDA is implicated in a number of neurodegenerative conditions that involve RGC, such as glaucoma, optic neuropathies of trauma and other origins, and that affect other CNS structures, such as Alzheimer's disease, Parkinson's disease, Huntington's disease, stroke, and […] (ALS). […] RGC viability was measured and the percentage of RGC loss due to the excitotoxicity was calculated.

FLT3 = target: T1, FLT3 (Homo sapiens, UniProt P36888); details: cited from earlier work
T1 sequence (P36888 27-993): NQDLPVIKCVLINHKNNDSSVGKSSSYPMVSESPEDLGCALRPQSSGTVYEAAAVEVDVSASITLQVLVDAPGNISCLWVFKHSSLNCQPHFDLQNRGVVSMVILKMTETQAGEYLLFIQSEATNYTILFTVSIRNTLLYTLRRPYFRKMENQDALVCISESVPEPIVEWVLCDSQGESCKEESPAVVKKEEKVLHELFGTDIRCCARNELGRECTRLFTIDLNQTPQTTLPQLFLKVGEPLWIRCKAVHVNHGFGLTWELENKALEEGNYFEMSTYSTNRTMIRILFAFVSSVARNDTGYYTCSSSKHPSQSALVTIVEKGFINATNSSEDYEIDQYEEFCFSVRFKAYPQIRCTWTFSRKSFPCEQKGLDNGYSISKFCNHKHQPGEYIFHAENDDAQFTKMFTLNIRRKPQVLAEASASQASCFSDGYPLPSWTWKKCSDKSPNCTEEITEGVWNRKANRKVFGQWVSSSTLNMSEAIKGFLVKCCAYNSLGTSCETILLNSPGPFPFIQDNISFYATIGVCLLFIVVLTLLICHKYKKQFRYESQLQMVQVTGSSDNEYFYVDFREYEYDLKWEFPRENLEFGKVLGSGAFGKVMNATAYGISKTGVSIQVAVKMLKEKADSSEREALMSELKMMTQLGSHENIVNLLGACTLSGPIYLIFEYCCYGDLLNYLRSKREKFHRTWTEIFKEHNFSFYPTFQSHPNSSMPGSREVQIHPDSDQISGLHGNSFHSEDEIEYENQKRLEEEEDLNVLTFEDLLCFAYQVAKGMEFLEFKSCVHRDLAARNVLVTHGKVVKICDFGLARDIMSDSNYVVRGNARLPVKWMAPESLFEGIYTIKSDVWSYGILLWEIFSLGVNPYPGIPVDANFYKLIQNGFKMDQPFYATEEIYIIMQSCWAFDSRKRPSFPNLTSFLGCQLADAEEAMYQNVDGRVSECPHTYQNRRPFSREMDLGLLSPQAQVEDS

CN(C)S(=O)(=O)c1ccc2c(c1)/C(=C/c1cc3c([nH]1)CCCC3)C(=O)N2 [SU6656, (3Z)—N,N-dimethyl-2-oxo-3-(4,5,6,7-tetrahydro-1H-indol-2-ylmethylidene)-1H-indole-5-sulfonamide]
RGC survival (live cell count) [1]: significantly increased RGC survival

CNC(=O)c1cc(Oc2ccc(NC(=O)Nc3ccc(Cl)c(C(F)(F)F)c3)cc2)ccn1 [Sorafenib]
pro-surviving activity on RGCs (mouse RGCs [2]; Example 4, clinical protein kinase inhibitors, purified primary mouse RGC culture): lacking strong protective activity to RGC
RGC neurite growth (mouse RGCs [3]): stimulate neurite growth as potently as sunitinib (1 μM)

CCN(CC)CCNC(=O)c1c(C)[nH]c(/C=C2\C(=O)Nc3ccc(F)cc32)c1C [sunitinib, N-[2-(diethylamino)ethyl]-5-[(Z)-(5-fluoro-1,2-dihydro-2-oxo-3H-indol-3-ylidine)methyl]-2,4-dimethyl-1H-pyrrole-3-carboxamide]
toxicity to RGC in vitro (mouse RGCs [2]; concentrations higher than 1 μM): higher concentrations exhibit toxicity
projected surviving RGCs (mouse RGCs [4]; mouse, in vivo): 79.2%
appearance of retina (mouse RGCs [4]; mouse, in vivo, 15 mg/kg/day): obvious yellow appearance
cells in GCL survived (mouse RGCs [4]; systemic administration of 5 mg/kg/day for ten days after optic nerve crush): ~88.5%
antagonism of detrimental effects of Flt31 on RGC (RGC; Flt31 at 16 ng/ml, sunitinib present in the media): 1.4 fold
reduction of number of apoptotic cells in GCL (activated Caspase-3): 38.9%
reduction of RGC loss caused by AMPA (mouse RGCs [5]; 100 μM AMPA): 4 folds
reduction of RGC loss caused by NMDA (mouse RGCs [5]; 100 μM NMDA): ~10 folds

O=C(NC1CCOCC1)c1ccc(-c2cc(-c3c[nH]nc3-c3ccccn3)ccn2)cc1 [TGF-beta receptor inhibitor]
RGC loss / RGC survival after optic nerve injury (mouse RGCs [4]): capable of reducing RGC loss
RGC loss / RGC survival after optic nerve injury (mouse RGCs [4]; listed as drawing 10): increased RGC survival

B1: Flt31: Flt3 ligand, RTK ligand (protein, UniProt P49771 27-235, looked up)
Fms-related tyrosine kinase 3 …: TQDCSFQHSPISSDFAVKIRELSDYLLQDYPVTVASNLQDEELCGGLWRLVLAQRWMERLKTVAGSKMQGLLERVNTEIHFVTKCAFQPPPSCLRFVQTNISRLLQETSEQLVALKPWITRQNFSRCLELQCQPDSSTLPPPWSPRPLEATAPTAPQPPLLLLLLLPVGLLLLAAAWCLHWQRTRRRTPRPGEQVPPVPSPQDLLLVEH
effect on RGC survival (RGC; Flt31 at 4 ng/ml): did not appear to affect RGC survival
compromise of the pro-surviving activity of sunitinib (RGC; Flt31 at 4 ng/ml with sunitinib): 36.6%
reduction of RGC survival (RGC; Flt31 at 16 ng/ml): 38.3%
EC50 (FLT3): 4 ng/mL
